Laboratory results: article PMC10177516, “Design and Biological Evaluation of Small-Molecule PET-Tracers for Imaging of Programmed Death Ligand 1” (Cancers, 2023)
Where two headings read alike, the source gives them in different places.

How the values were obtained:
human serum proteins = assay: Serum protein binding, size-exclusion chromatography; format: in vitro ADME; details: ^177Lu-labeled; human serum 37 °C; 1 h
Experimental: The corresponding ligand was labeled with approx. 50 MBq of ^177Lu in 200 µL HEPES solution (pH 4) as described above. After successful labeling, 40 µL were mixed with 500 µL of human serum or 500 µL of 1 M HEPES solution (control), respectively. The samples were incubated at 37 °C with 500 rpm and were analyzed by size-exclusion chromatography (Jasco Germany GmbH, Pfungstadt, System F) and native discontinuous polyacrylamide gel electrophoresis (PAGE).
For size-exclusion chromatography, 20 µL aliquots were injected into system F and the obtained peak areas of serum-bound ligands and unbound ligands were used to calculate the percentage of radioligand bound to serum proteins. Evaluation and graphical plotting were performed with OriginPro® 9.0.

[1] = Proteolytic stability in human serum, radio-HPLC; format: in vitro ADME; details: ^177Lu-labeled, throughout the study (up to seven days)
Experimental: The corresponding radiotracer was labeled with approx. 50 MBq of ^177Lu in 200 µL HEPES solution (pH 4) as described above. After successful labeling, the reaction mixture was diluted 1:10 with human serum. The solution was incubated at 37 °C with shaking at 500 rpm. After 1 h, 24 h, 48 h, 72 h, and 7 d, a 1 µL aliquot was analyzed by radio-TLC as described above. Evaluation and graphical plotting were performed with OriginPro® 9.0.
For investigation by radio-HPLC, a chloroform–methanol precipitation was carried out at each time point. An aliquot (100 µL) of the serum-containing incubation reaction was mixed with 400 µL of MeOH. Then, 100 µL of chloroform were added and the sample was vortexed well. For phase separation, 300 µL of ultrapure water were added, and the sample was vortexed vigorously and centrifuged for 2 min at 14,000× g. The upper, aqueous layer was carefully removed and collected. To the lower chloroform phase and the interphase containing the precipitated proteins, 400 µL of MeOH was added. The sample was mixed and centrifuged again for 3 min at 14,000× g to pellet the proteins. […] Afterward, the clear supernatant was analyzed by radio-HPLC (system E). The peak areas were normalized by measuring the activity with the gamma counter (HIDEX Deutschland Vertrieb GmbH, Mainz, Germany) at the corresponding time point. Evaluation and graphical plotting were performed with OriginPro® 9.0.

PD-L1 [2] = system: PD-L1; set-up: method as in earlier work; details: reported values; cited from earlier work
[3] = log D7.4 determination, shake-flask n-octanol/PBS; format: physicochemical; details: ^64Cu-labeled, n-octanol/PBS pH 7.4, mean ± SD, n=3
Experimental: n-Octanol/water distribution coefficients (log D7.4) were determined using the shake-flask method and performed in triplicate. Twenty µL of the reaction mixture was added to a 1.5 mL Eppendorf Tube containing 580 µL of 1× PBS (pH 7.4) and 600 µL n-octanol. The two-phase system was shaken at room temperature with 1500 rpm for 5 min. After centrifugation, an aliquot of each phase was withdrawn, and the count rates were measured in a γ-counter (ISOMED2160 sodium iodide crystal detector). The average was calculated, corrected for background activity, and the log D7.4 value was calculated according to the formula: logD7.4=logAn−octanol/APBS .

[4] = system: PC3 PD-L1 and PC3 mock tumors; assay: Small animal PET/CT in tumor-bearing mice; format: in vivo, NMRI-nude mice; details: blocking with 100 nmol of the respective unlabeled compound; PET
Experimental: Male athymic NMRI-nude mice (Rj:NMRI-Foxn1nu, Janvier Labs, Le Genest-Saint-Isle, France) between 8 and 22 weeks of age were used. Under general anesthesia, [~10% desflurane (Baxter, Deerfield, IL, USA) in 30 vol% oxygen + air] and warming, animals were subcutaneously injected with 3–5 × 10^6 PC3 PD-L1 and PC3 mock cells [in 50 µL PBS + 50 µL Matrigel (Corning, Glendale, CA, USA)] into the right and left thigh, respectively. Tumor growth was monitored three times a week by caliper measurements and mice with tumor sizes above 7 mm were included in the experiments.
For PET studies, general anesthesia was induced as described above. PET and X-ray computed tomography (CT) were performed in a dedicated small animal nanoScan PET/CT scanner, with 4 animals imaged simultaneously (Mediso, Budapest, Hungary). CT images were employed for attenuation correction and anatomical referencing. Animals received three individual scans corresponding to 0–2 h (dynamic), 4.5 h, and 24 h (static) post injection. […]
Three-dimensional volumes of interest were delineated applying fixed thresholding at 35% of the measured maximum intensity. Standardized uptake values (SUV = [MBq detected activity/mL tissue]/[MBq injected activity/g body weight], […]) were determined in selected volumes of interest, among these PD-L1 and mock tumors and metabolizing organs.

PD-L1 [5] = biological target: T1, PD-L1 (Homo sapiens, UniProt Q9NZQ7); assay: Saturation binding assay (endpoint, with 2.5% BSA) on PD-L1-positive PC3 cells
T1 construct: expressed in transfected cells; host or cells: PC3 cells, lentiviral transduction (PC3-PD-L1)
Experimental: To determine the dissociation constant (KD) and number of binding sites (Bmax) of new PD-L1 small-molecule ligands, saturation binding was performed in at least 3 independent experiments. PC3 cells stably transduced with human PD-L1, cultured under conditions described above, were brought to room temperature followed by cooling on ice (each 15 min). The medium was removed and replaced with 200 µL assay buffer [PBS + 2.5% (w/v) bovine serum albumin (BSA; #1ETA, Carl Roth, Karlsruhe, Germany)] for total binding (TB) conditions or assay buffer containing 300 µM of 1 (in DMSO, resulting in 0.03% v/v, synthesized according to Supplementary Scheme S1) for assessment of nonspecific binding (NSB).
After 15 min preincubation for TB/NSB, 200 µL of each eight serial 1:1 dilutions (500 to 3.91 nM) of the respective radioligand were added (in triplicate). […] Radioactivity (counts per minute, CPM) of 400 µL of the lysate was measured in a gamma counter (Perkin Elmer Wizard 1480) using the nuclide-specific energy window. Additionally, we determined the binding to polystyrene in 400 µL of lysate and activity of stock solutions (50 µL). […] Protein content of the lysates (24 or 48 wells) was determined by BCA assay and a mean value (µg/mL) used for this particular dataset (plate). From CPM measurements, final values (pmol/mg protein) were calculated using mean protein content and molar activity. […]

PD-L1 [6] = biological target: T1, PD-L1; assay: Real-time radioligand binding (LigandTracer) on PC3 PD-L1 overexpressing cells; details: for kon: read-out: ka (association rate constant); for koff: read-out: kd (dissociation rate constant)
Experimental: For binding kinetics (association rate constant ka and dissociation rate constant kd) and dissociation constant (KD), a real-time assay system (LigandTracer Yellow, Ridgeview Instruments AB, Uppsala, Sweden) was employed. In this system, the petri dish containing the cells in medium (3 mL) was located on one side, while radioactivity was detected on the opposite side. The dish rotated on an inclined base, which allowed continuously measuring two or more alternating parts of the dish for bound radioligand (cells) against background (no cells). Binding was performed at room temperature (using CO2-independent medium, Gibco #18045088, ThermoFisher Germany) with or without BSA (2.5%). Association was determined through incubation with two concentrations (10 and 40 nM, 90 min each) of our ^64Cu-labeled PD-L1 small molecules, binding to PC3 PD-L1 overexpressing cells. This was followed by replacement with fresh medium and measurement of dissociation for at least 2 h. This approach provided reliable kinetic measurements as previously shown. Data were acquired in decay-corrected counts per second (CPS). Binding data were then evaluated using TraceDrawer (1.9.2, Ridgeview Instruments AB, Uppsala, Sweden). Traces were imported, potential spikes (>100% sudden increases in CPS over previous datapoint) removed, and each trace was normalized to its own baseline (=0%) and highest value (=100%). The single experiment in the presence of 2.5% BSA was processed in the same way and analyzed for the same parameters, however without replicates.

[7] = medium only (no BSA), n = 2, mean ± S.D.

T1 sequence (Q9NZQ7 19-290): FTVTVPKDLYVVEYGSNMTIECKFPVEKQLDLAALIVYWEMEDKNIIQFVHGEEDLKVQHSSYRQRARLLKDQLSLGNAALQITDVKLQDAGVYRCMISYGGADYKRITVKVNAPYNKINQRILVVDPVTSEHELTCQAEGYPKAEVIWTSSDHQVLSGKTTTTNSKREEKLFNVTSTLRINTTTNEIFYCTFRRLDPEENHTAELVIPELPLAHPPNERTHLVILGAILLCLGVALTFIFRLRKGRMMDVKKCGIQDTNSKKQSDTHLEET

## Cc1c(COc2cc(OCc3cncc(C#N)c3)c(CN(C)CC(=O)NCC(S(=O)(=O)O)S(=O)(=O)O)cc2Cl)cccc1-c1cccc(OCc2cn(CCCN3CCN(C(=O)CN4CCN(CC(=O)O)CCN(CC(=O)O)CCN(CC(=O)O)CC4)CC3)nn2)c1C [56a]
Human serum proteins
  bound to human serum proteins (mean ± SD): 95.7%
[1]
  intact radiotracer: > 90%

## CN(CC(=O)NCC(S(=O)(=O)O)S(=O)(=O)O)Cc1cc(Cl)c(OCc2cccc(-c3cccc(OCc4cn(CCOCCOCCN5CCN(C(=O)CN6CCN(CC(=O)O)CCN(CC(=O)O)CCN(CC(=O)O)CC6)CC5)nn4)c3)c2Br)cc1OCc1cncc(S(C)(=O)=O)c1 [42c]
[1]
  intact radiotracer: > 90%

## Cc1c(COc2cc(OCc3cncc(C#N)c3)c(CN(C)C(CO)(CO)CO)cc2Cl)cccc1-c1cccc(OCCCN2CCC(F)(F)C2)c1C [compound 3]
PD-L1 [2]
  IC50: 0.5 nM

## CN(CC(=O)NCC(S(=O)(=O)O)S(=O)(=O)O)Cc1cc(Cl)c(OCc2cccc(-c3cccc(OCc4cn(CCCC5CCN(C(=O)CN6CCN(CC(=O)O)CCN(CC(=O)O)CCN(CC(=O)O)CC6)CC5)nn4)c3)c2Br)cc1OCc1cncc(S(C)(=O)=O)c1 [42a]
[3]
  logD: -2.73

## Cc1c(COc2cc(OCc3cncc(S(C)(=O)=O)c3)c(CN(C)CC(=O)NCC(S(=O)(=O)O)S(=O)(=O)O)cc2Cl)cccc1-c1cccc(OCc2cn(CCOCCOCCN3CCN(C(=O)CN4CCN(CC(=O)O)CCN(CC(=O)O)CCN(CC(=O)O)CC4)CC3)nn2)c1C [43c]
[1]
  intact radiotracer: > 90%
[3]
  logD: -3.5

## Cc1c(COc2cc(OCc3cncc(C#N)c3)c(CN(C)CC(=O)NCC(S(=O)(=O)O)S(=O)(=O)O)cc2Br)cccc1-c1cccc(OCc2cn(CCCN3CCN(C(=O)CN4CCN(CC(=O)O)CCN(CC(=O)O)CCN(CC(=O)O)CC4)CC3)nn2)c1C [56b]
Human serum proteins
  bound to human serum proteins (mean ± SD): 94.6%
[1]
  intact radiotracer: > 90%

## Cc1c(COc2cc(OCc3cncc(S(C)(=O)=O)c3)c(CN(C)CC(=O)NCC(S(=O)(=O)O)S(=O)(=O)O)cc2Cl)cccc1-c1cccc(OCc2cn(CCCN3CCN(C(=O)CN4CCN(CC(=O)O)CCN(CC(=O)O)CCN(CC(=O)O)CC4)CC3)nn2)c1C [43b]
[4]
  blocking effect: moderate blocking effect

## CCCC[C@H]1C(=O)N(C)[C@@H](CCCC)C(=O)N[C@@H](CCCNC(=O)CCC(C(=O)O)N2CCN(CC(=O)O)CCN(CC(=O)O)CCN(CC(=O)O)CC2)C(=O)N[C@H](C(=O)NCC(N)=O)CSCC(=O)N[C@@H](Cc2ccc(O)cc2)C(=O)N(C)[C@@H](C)C(=O)N[C@@H](CC(N)=O)C(=O)N2CCC[C@H]2C(=O)N[C@@H](Cc2c[nH]cn2)C(=O)N[C@@H](CC(C)C)C(=O)N2C[C@H](O)C[C@H]2C(=O)N[C@@H](Cc2c[nH]c3ccccc23)C(=O)N[C@@H](CO)C(=O)N[C@@H](Cc2cn(C)c3ccccc23)C(=O)N1C (stereo partly drawn) [[^64Cu]Cu-DOTAGA-WL12, metal not drawn]
PD-L1 [5]; ^64Cu complexes, saturation binding with 2.5% BSA, PD-L1-positive PC3 cells
  Bmax (maximum number of binding sites): 56.7 ± 3.87 pmol/mg
PD-L1 [5]; saturation KD versus SPR value of ref 68
  affinity, times worse than previously reported using SPR: approximately 15 times
PD-L1 [6]; medium + 2.5% BSA, n = 1
  kon: 7460 M⁻¹ s⁻¹
  koff: 6.74e-06 s⁻¹
PD-L1 [6]; [7]
  kon: 12200 M⁻¹ s⁻¹
  koff: 9.77e-06 s⁻¹
[3]
  logD: -2.57 ± 0.02

## Cc1c(COc2cc(OCc3cncc(C#N)c3)c(CN(C)CC(=O)NCC(S(=O)(=O)O)S(=O)(=O)O)cc2I)cccc1-c1cccc(OCc2cn(CCCN3CCN(C(=O)CN4CCN(CC(=O)O)CCN(CC(=O)O)CCN(CC(=O)O)CC4)CC3)nn2)c1C [56c]
Human serum proteins
  bound to human serum proteins (mean ± SD): 97.6%
